The results in this text go back to article PMC7462607 (eLife, 2020).

Molecules are shown by their SMILES. Values joined by “and” are separate entries in the source; they are usually repeats but may differ in a detail not shown here. Equal values may be shown once.

One assay relates to CCNK. The assay can be described thus: Western blotting of CCNK protein level in A549 cells. Format: cell-based, Homo sapiens. Here is the method: Standard SDS-PAGE and western blotting procedures were used with the following modifications. For preparation of total lysates, cells were rinsed with DPBS to remove residual medium and then lysed in 20 mM HEPES-NaOH, pH 8.0, 10 mM NaCl, 2 mM MgCl2, 1% SDS freshly supplemented with 0.5 units/µL of benzonase and 1x cOmplete, Mini, EDTA-free protease inhibitor cocktail (Roche, Bazel, Switzerland). Protein concentrations of the resulting lysates were quantified by the BCA method. Between 30 to 60 µg of proteins were resolved on SDS-PAGE and transferred to nitrocellulose membranes with a pore size of 0.5 μm. Membranes were blocked in 5% nonfat milk PBST (0.1% v/v Tween-20) for 30 min before blotting with antibodies. The following primary antibodies were used by dilution in 5% nonfat milk PBST: anti-NRF2 (Abcam, Cambridge, UK, ab62352, 1:4,000), anti-β-Actin-HRP (Huaxingbio, Beijing, China, HX18271,1:10,000), anti-α-Tubulin-HRFP (MBL Life Science, Japan, PM054-7, 1:10,000), anti-DDB1 (Abcam, Cambridge, UK, ab109027, 1:10,000), anti-RBX1 (Proteintech, Wuhan, China, 14895–1-AP, 1:5,000), anti-UBE2G1 (Proteintech, Wuhuan, China, 12012–1-AP, 1:2,000), anti-CDK12 (Cell Signaling Technology, Danvers, USA, 11973S,1:4,000), anti-CCNK (Bethyl lab, Montgomery, USA, A301-939A-T,1:4,000), anti-FLAG-HRP (Sigma-Aldrich, MO, USA, A8592, 1:10,000), anti-HA (BioLegend, San Diego, USA, 901533, 1:4,000), anti-RNA polymerase II subunit B1 (phospho CTD Ser-2) clone 3E10 (Sigma-Aldrich, MO, USA, 04–1571, 1:5,000), and anti-RNA polymerase II CTD repeat YSPTSPS antibody clone 8WG16 (Abcam, Cambridge, UK, ab817, 1:5,000). The following HRP-linked secondary antibodies were used by dilution in PBST: anti-rabbit IgG (Cell Signaling Technology, Danvers, USA, 7074S, 1:10,000), anti-mouse IgG (Zsbio, Beijing, China, ZB-2305, 1:10,000), and anti-rat IgG, (Sino Biological, Beijing, China, SSA005, 1:10,000). M5 HiPer ECL Western HRP Substrate (Mei5bio, Beijing, China, MF074-01) was used for the detection of HRP enzymatic activity. Western blot images were taken with a VILBER FUSION FX7 imager.
(Immunoblotting shows a protein as a band on a membrane.)

The target in a further assay is T1, FLAG-DDB1/CDK12KD/CCNKΔC (Homo sapiens, UniProt Q9NYV4).
T1 construct: Human CDK12KD (residues 715–1052); 6xHis (PreScission site) (N, cleaved yes); made in house; host or cells: Sf9 or High Five (CDK12KD/CCNKΔC, co-infected with yeast CAK1); 293F (FLAG-Avi-DDB1)
The assay can be described thus: FLAG-DDB1:CDK12KD/CCNKΔC pull down assay. The assay is classed as binding. Here is the method: FLAG-Avi-DDB1 (18.2 µg) was mixed with CDK12KD/CCNKΔC (10 µg) at 1:1 molar ratio in 500 μL of pulldown assay buffer containing 50 mM HEPES, pH 7.5, 300 mM NaCl, 0.5 mM TCEP. The protein mix was then supplemented with DMSO or HQ461. After 30 min of incubation on ice, the protein-compound mix was incubated with anti-FLAG M2 affinity gel for another 30 min on a rotator at 4 °C. Protein-bound beads were washed three times with the pulldown assay buffer and bound proteins were eluted with 0.2 mg/mL FLAG peptide. Eluted proteins were analyzed by SDS-PAGE followed by coomassie blue staining.

Assay [1] has as its target T2, FLAG-Avi-DDB1 and His-CDK12KD G731E/His-CCNKΔC (Homo sapiens, UniProt Q9NYV4, G731E).
T2 construct: Human CDK12KD (residues 715–1052); made in house; host or cells: Sf9 or High Five (CDK12KD/CCNKΔC, co-infected with yeast CAK1); 293F with BirA (FLAG-Avi-DDB1)
Put plainly: AlphaScreen assay, G731E. The assay is classed as binding. As to conditions: for AlphaScreen: G731E, raw signal. Here is the method: Biotinylated FLAG-Avi-DDB1 (3 µM) and 6xHis-CDK12KD/6xHis-CCNKΔC (WT or G731E/R mutants) (3 µM) were mixed in an assay buffer (50 mM HEPES, pH7.5, 300 mM NaCl, 0.5 mM TCEP, 0.1% NP-40, 0.1% BSA) and a serial dilution of HQ461.The protein-compound mix was transferred to 384-well plates (Corning, Corning, USA); 15 μL per well. After a 1 hr room temperature incubation, 10 µL of nickel chelate (Ni-NTA) acceptor beads (PerkinElmer, Waltham, USA, Waltham, USA, 6760619C) (1:100 diluted with assay buffer) was added per well. After incubation in the dark for 1 hr at room temperature, 10 μL of streptavidin donor beads (PerkinElmer, Waltham, USA, 6760619C) (1:100 diluted in assay buffer) was added per well. After another 1 hr incubation, AlphaScreen signal was measured on the EnVision multimode plate reader (PerkinElmer, Waltham, USA). For THZ531 competition, FLAG-Avi-DDB1, 6xHis-CDK12KD/6xHis-CCNKΔC mix was preincubated with 5 μM of THZ531 for 30 min on ice followed by the procedures described above.

In assay [2] the test system is BRCA1, BRCA2, ATR, ERCC4 mRNA. The assay can be described thus: RT-qPCR of BRCA1, BRCA2, ATR and ERCC4 mRNAs. The assay is classed as cell-based, Homo sapiens. Here is the method:
Total RNA was extracted from HQ461-treated A549 cells using TRNzol (Tiangen, Beijing, China). Reverse transcription of mRNA into cDNA was performed using the 5X All-In-One RT mastermix kit with AccuRT genomic DNA removal kit (Abm, Richmond, Canada), and qPCR was performed using TB Green Premix Ex Taq (Tli RNaseH Plus) (Takara, Otsu, Japan) with the CFX96 Real-Time PCR Detection System (Bio-Rad, Hercules, USA). GAPDH was used for normalization. Primer sequences are as follows: GAPDH-forward: 5’-[…]-3’; GAPDH-reverse: 5’-[…]-3’; BRCA1-forward: 5’-[…]-3’; BRCA1-reverse: 5’-[…]-3’; BRCA2-forward: 5’-[…]-3’; BRCA2-reverse: 5’-[…]-3’; ATR-forward: 5’-[…]-3’; ATR-reverse: 5’-[…]-3’; ERCC4-forward: 5’-[…]-3’; ERCC4- reverse: 5’-[…]-3’. Each experiment was performed with three technical replicates.

T2 sequence (Q9NYV4 715-1052 G731E limits assumed): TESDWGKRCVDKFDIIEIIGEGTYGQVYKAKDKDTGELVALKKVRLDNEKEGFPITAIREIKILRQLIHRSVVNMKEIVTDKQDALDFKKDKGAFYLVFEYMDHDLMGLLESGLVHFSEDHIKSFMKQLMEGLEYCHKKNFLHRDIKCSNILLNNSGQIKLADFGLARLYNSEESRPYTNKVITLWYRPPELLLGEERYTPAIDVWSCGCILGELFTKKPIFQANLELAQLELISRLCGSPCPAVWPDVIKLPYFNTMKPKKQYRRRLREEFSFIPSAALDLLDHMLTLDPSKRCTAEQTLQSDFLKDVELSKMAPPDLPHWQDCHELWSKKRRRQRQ
T2 sequence (O75909 11-267 partner limits assumed): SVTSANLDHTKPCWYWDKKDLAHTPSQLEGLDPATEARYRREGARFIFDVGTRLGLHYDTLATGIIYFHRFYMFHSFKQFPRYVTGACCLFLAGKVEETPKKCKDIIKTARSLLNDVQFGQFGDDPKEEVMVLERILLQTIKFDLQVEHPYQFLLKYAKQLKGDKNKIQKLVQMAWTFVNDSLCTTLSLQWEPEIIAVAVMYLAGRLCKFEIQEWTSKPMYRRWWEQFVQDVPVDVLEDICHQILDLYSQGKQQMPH
T1 sequence (Q9NYV4 715-1052, stated change not applied): as the sequence (Q9NYV4 715-1052 G731E limits assumed) above, with E17G counted along it
T1 sequence (O75909 11-267 partner limits assumed): as the sequence (O75909 11-267 partner limits assumed) above
T1 sequence (Q16531 whole entry partner, the tested form may be a part): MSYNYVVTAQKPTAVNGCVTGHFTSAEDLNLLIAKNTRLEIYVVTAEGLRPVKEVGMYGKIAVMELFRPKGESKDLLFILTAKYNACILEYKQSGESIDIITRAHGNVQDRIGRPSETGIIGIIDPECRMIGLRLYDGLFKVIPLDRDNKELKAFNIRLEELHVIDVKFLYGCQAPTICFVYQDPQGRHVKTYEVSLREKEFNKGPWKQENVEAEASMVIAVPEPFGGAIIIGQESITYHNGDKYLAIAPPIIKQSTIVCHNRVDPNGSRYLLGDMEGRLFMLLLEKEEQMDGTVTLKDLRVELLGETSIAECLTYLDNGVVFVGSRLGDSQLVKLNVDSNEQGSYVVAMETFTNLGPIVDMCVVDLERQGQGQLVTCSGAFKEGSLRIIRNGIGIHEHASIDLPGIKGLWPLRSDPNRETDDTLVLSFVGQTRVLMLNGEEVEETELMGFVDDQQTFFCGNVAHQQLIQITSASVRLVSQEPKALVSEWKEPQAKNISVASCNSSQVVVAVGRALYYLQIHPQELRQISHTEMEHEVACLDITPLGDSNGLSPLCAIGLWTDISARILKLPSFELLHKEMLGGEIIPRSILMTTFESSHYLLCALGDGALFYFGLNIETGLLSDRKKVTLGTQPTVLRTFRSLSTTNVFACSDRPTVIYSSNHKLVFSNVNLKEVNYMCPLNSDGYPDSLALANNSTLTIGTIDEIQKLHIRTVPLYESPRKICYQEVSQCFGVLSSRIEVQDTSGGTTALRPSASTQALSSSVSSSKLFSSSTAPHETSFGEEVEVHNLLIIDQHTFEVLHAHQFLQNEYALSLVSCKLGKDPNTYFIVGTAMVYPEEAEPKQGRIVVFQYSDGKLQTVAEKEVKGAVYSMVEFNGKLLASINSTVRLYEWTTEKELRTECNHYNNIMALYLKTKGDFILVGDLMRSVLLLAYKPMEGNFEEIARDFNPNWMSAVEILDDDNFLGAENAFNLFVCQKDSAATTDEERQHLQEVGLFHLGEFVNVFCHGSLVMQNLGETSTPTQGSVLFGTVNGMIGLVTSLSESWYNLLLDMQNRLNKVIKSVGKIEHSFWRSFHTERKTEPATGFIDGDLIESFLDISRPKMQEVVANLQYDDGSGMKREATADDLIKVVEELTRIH

Take `Cc1cccc(Nc2nc(CC(=O)Nc3ncc(C)s3)cs2)n1` [HQ461, 2-(2-((6-methylpyridin-2-yl)amino)thiazol-4-yl)-N-(5-methylthiazol-2-yl)acetamide]: in the assay with CCNK (A549, 4 hr treatment), the “reduction of the CCNK protein level” value was more than 8 fold. The “CCNK protein level in cells with CDK12 G731E or G731R mutation” value with CCNK (A549 CDK12 G731E/G731R cells) is “not affected”. At FLAG-DDB1/CDK12KD/CCNKΔC, the “complex formation of DDB1 with CDK12KD/CCNKΔC (pulldown)” value is “near-stoichiometric complex”. The AlphaScreen in assay [1] (HQ461 2.22e-6 M) was 1248 and 1240 and 1185; in assay [1] (HQ461 6.67e-6 M), 1251 and 1198 and 1100; in assay [1] (HQ461 2e-5 M), 1233 and 1200 and 1143; in assay [1] (HQ461 2.47E-07 M), 1234 and 1107 and 1145; in assay [1] (HQ461 2.74E-08 M), 1248 and 1124 and 1169; in assay [1] (HQ461 7.41E-07 M), 1137 and 1171 and 1109. The AlphaScreen in assay [1] (HQ461 8.23E-08 M) was 1304 and 1157 and 1110. For the same compound, the “complex formation with DDB1, G731E mutant” value in assay [1] (even with 20 µM of HQ461) is recorded as “did not form a complex with DDB1”. The “inhibitory effect on the expression of DDR genes” value in assay [2] (A549 with CDK12 G731E or G731R mutation) is reported as “abolished”. Moreover, the “mRNA levels of BRCA1, BRCA2, ATR and ERCC4” value in assay [2] (parental A549, 10 µM HQ461 for 16 hr) is reported as “reductions in the mRNA levels of all four tested DDR genes”.
